Results taken from patent US10647682B2, “Salts of 2,6-dimethylpyrimidone derivatives and uses thereof” (SUNSHINE LAKE PHARMA CO., LTD., priority 2016, dated 2020).
Where two headings read alike, the source gives them in different places.

What was measured:
[1] = High temperature test (stability); type: physicochemical; details: 60° C.; for purity: HPLC
Protocol: High temperature test: an appropriate amount of sample was put in a weighing bottle in the form of a thin layer of ≤5 mm, under a temperature of 60° C. for 10 days. Samples were took at fifth and tenth day, appearance was observed and purity was detected by HPLC.

[2] = High humidity test (stability); type: physicochemical; details: 25° C., RH 90%±5%, HPLC
Protocol: High humidity test: an appropriate amount of sample was put in a weighing bottle in the form of a thin layer of ≤5 mm, under a temperature of 25° C. and RH 90%±5% for 10 days. Samples were took at fifth and tenth day, appearance was observed and purity was detected by HPLC.

[3] = Pharmacokinetics experiments of the salts, oral capsules in Beagle dogs; details: 5 mg/kg
Protocol: (§1) (3-(4-(dihexylamino)-3-fluorophenyl)-2,6-dimethylpyrimidin-4(3H)-one), crystalline forms of the various salts were filled into capsules, which were administered orally.
(§2) Blood samples were collected at 0.25, 0.5, 1.0, 2.0, 4.0, 6.0, 8.0, 12 and 24 hours after the administration. Standard curve was plotted based on concentrations of the samples in a suitable range, the concentrations of test compounds in plasma samples were determined by using Agilent 6430 LC-MS/MS under MRM mode, and quantitative analysis was performed. Pharmacokinetic parameters were calculated according to drug concentration-time curve using a noncompartmental method by WinNonLin 6.3 software.

[4] = dog, in vivo, po, 5 mg/kg
Protocol: as §1, §2

In the case of `CCCCCCN(CCCCCC)c1ccc(-n2c(C)nc(C)cc2=O)cc1F.Cl` [Example 1, 3-(4-(dihexylamino)-3-fluorophenyl)-2,6-dimethylpyrimidin-4(3H)-one Hydrochloride Crystal-I], the purity ([1]; 0 d) is reported as 99.81%, the purity ([1]; 5 d) is reported as 99.80% and the purity ([1]; 10 d) is reported as 99.79%. The purity ([2]; 0 d) was 99.81%, the purity ([2]; 5 d) was 99.79% and the purity ([2]; 10 d) was 99.80%. The AUCINF ([3]; male Beagle dogs, oral capsule) was 6310 ng·h/mL, the AUClast ([3]; male Beagle dogs, oral capsule) was 4470 ng·h/mL and the Cmax ([3]; male Beagle dogs, oral capsule) was 364 ng/mL. The MRTINF ([3]; male Beagle dogs, oral capsule) was 41.9 h, the T1/2 ([3]; male Beagle dogs, oral capsule) was 34.5 h and the Tmax ([3]; male Beagle dogs, oral capsule) was 2.33 h.

With `CCCCCCN(CCCCCC)c1ccc(-n2c(C)nc(C)cc2=O)cc1F` [Compound (I), 3-(4-(dihexylamino)-3-fluorophenyl)-2,6-dimethylpyrimidin-4(3H)-one] the AUC(0-inf) ([3]; male, Beagle, dog, plasma, po) was 2320 ng·h/mL, the AUC(0-t) ([3]; male, Beagle, dog, plasma, po) was 1730 ng·h/mL and the Cmax ([3]; male, Beagle, dog, plasma, po) was 244 ng/mL. For the same compound, the MRT inf ([3]; male, Beagle, dog, plasma, po) was 23.3 h, the Tmax ([3]; male, Beagle, dog, plasma, po) was 1.17 h and the half-life ([3]; male, Beagle, dog, plasma, po) was 13.8 h.

`CCCCCCN(CCCCCC)c1ccc(-n2c(C)nc(C)cc2=O)cc1F.Cc1ccc(S(=O)(=O)O)cc1` [Example 6, 3-(4-(dihexylamino)-3-fluorophenyl)-2,6-dimethylpyrimidin-4(3H)-one Tosilate Crystal-I] gave a purity ([1]; 0 d) of 99.83%, a purity ([1]; 5 d) of 99.81% and a purity ([1]; 10 d) of 99.81%. The purity ([2]; 0 d) was 99.83%, the purity ([2]; 5 d) was 99.80% and the purity ([2]; 10 d) was 99.83%. It also gave an AUCINF ([3]; male Beagle dogs, oral capsule) of 3010 ng·h/mL, an AUClast ([3]; male Beagle dogs, oral capsule) of 2720 ng·h/mL and a Cmax ([3]; male Beagle dogs, oral capsule) of 329 ng/mL. It also gave an MRTINF ([3]; male Beagle dogs, oral capsule) of 17.5 h, a T1/2 ([3]; male Beagle dogs, oral capsule) of 17.5 h and a Tmax ([3]; male Beagle dogs, oral capsule) of 2 h. The “exposure compared to free compound (I)” value ([3]; male Beagle dogs, oral capsule, conclusion from table 1) was “relative higher exposure”.

For `CCCCCCN(CCCCCC)c1ccc(-n2c(C)nc(C)cc2=O)cc1F.Cl` [Example 2, 3-(4-(dihexylamino)-3-fluorophenyl)-2,6-dimethylpyrimidin-4(3H)-one Hydrochloride Crystal-II], the purity ([1]; 0 d) was 99.85%, the purity ([1]; 5 d) was 99.86% and the purity ([1]; 10 d) was 99.83%. The purity ([2]; 0 d) was 99.85%, the purity ([2]; 5 d) was 99.86% and the purity ([2]; 10 d) was 99.82%. For the same compound, the AUCINF [4] was 2820 ng·h/mL, the AUClast [4] was 2940 ng·h/mL and the Cmax [4] was 485 ng/mL. The MRTINF [4] was 9.43 h, the T1/2 [4] was 9.54 h and the Tmax [4] was 8.83 h. The “exposure compared to free compound (I)” value [4] was “relative higher exposure”.

For `CCCCCCN(CCCCCC)c1ccc(-n2c(C)nc(C)cc2=O)cc1F.O=C(O)/C=C\C(=O)O` [Example 8, 3-(4-(dihexylamino)-3-fluorophenyl)-2,6-dimethylpyrimidin-4(3H)-one Maleate Crystal-I], the appearance ([1]; 0 d) was “white solid”, the purity ([1]; 0 d) was 99.53% and the purity ([1]; 5 d) was 99.49%. The purity ([1]; 10 d) was 99.05%, the purity ([2]; 0 d) was 99.53% and the purity ([2]; 5 d) was 99.51%. It also gave a purity ([2]; 10 d) of 99.49%, an AUCINF [4] of 38337.53 ng·h/mL and an AUClast [4] of 5859.22 ng·h/mL. For the same compound, the Cmax [4] was 588 ng/mL, the MRTINF [4] was 155.21 h and the T1/2 [4] was 110.28 h. For the same compound, the Tmax [4] was 2 h and the “exposure compared to free compound (I)” value [4] was “relative higher exposure”.
